Measurements reported in PubChem BioAssay (NCI).
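Following 48 hours of exposure in 96-well plates, responses at five concentrations were used to interpolate endpoints linearly. At the TGI there is no net growth.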

Test system: CCRF-CEM leukemia
Assay: NCI anticancer screen, dose series, 48 h

How did the TGI turn out when `C=C1C(=O)O[C@@]23C1CC[C@@H](C)C2CC[C@@]1(C)OC31` (stereo partly drawn) was run?
The TGI was 15.9 µM.

`O=c1[nH]nc(-c2ccccc2)c2[nH]c(-c3ccccc3)cc12` was tested. Which TGI did it give?
Its TGI is greater than 100 µM.

`CC1S/C(=N/c2nnc(-c3ccccc3)o2)NC1=O` (stereo not drawn) was tested. Which TGI did it give?
Its TGI is greater than 100 µM.

How did the TGI turn out when `CC1(C)CNC(=O)C2(C=NC(C)(C)CNC(=O)C3(C=N1)CCCO3)CCCO2` (stereo not drawn) was run?
Its TGI is greater than 10 µM.

With `CC(=S)N=Cc1c(O)cc(C)oc1=O` as the compound, how does the TGI read?
The TGI was greater than 100 µM.

How did the TGI turn out when `COc1ccc(NC2=CC(=O)C(=O)c3ccccc32)nn1` was run?
The TGI was greater than 100 µM.

Which TGI does the source give for `CC1(C(=O)O)CCCC1C(=O)O` (stereo not drawn) here?
The TGI was greater than 100 µM.

How did the TGI turn out when `C=c1c(OC)c(OC)c(O)c2c1=c1cc([N+](=O)[O-])cc(OC)c1=N2` was run?
The TGI was greater than 100 µM.

Test system: RPMI-8226 leukemia
Assay: NCI anticancer screen, dose series, 48 h

`C=C1C(=O)O[C@@]23C1CC[C@@H](C)C2CC[C@@]1(C)OC31` (stereo partly drawn) was tested. Which TGI did it give?
Its TGI is 16.8 µM.

`O=c1[nH]nc(-c2ccccc2)c2[nH]c(-c3ccccc3)cc12` was tested. Which TGI did it give?
Its TGI is greater than 100 µM.

`CC1S/C(=N/c2nnc(-c3ccccc3)o2)NC1=O` (stereo not drawn) was tested. Which TGI did it give?
The TGI was greater than 100 µM.

`CC1(C)CNC(=O)C2(C=NC(C)(C)CNC(=O)C3(C=N1)CCCO3)CCCO2` (stereo not drawn) was tested. Which TGI did it give?
Its TGI is greater than 10 µM.

How did the TGI turn out when `CC(=S)N=Cc1c(O)cc(C)oc1=O` was run?
Its TGI is greater than 100 µM.

`COc1ccc(NC2=CC(=O)C(=O)c3ccccc32)nn1` was tested. Which TGI did it give?
The TGI was 5.34 µM.

How did the TGI turn out when `CC1(C(=O)O)CCCC1C(=O)O` (stereo not drawn) was run?
Its TGI is greater than 100 µM.

With `C=c1c(OC)c(OC)c(O)c2c1=c1cc([N+](=O)[O-])cc(OC)c1=N2` as the compound, how does the TGI read?
Its TGI is greater than 100 µM.

Test system: A549 NSCLC
Assay: NCI anticancer screen, dose series, 48 h

`C=C1C(=O)O[C@@]23C1CC[C@@H](C)C2CC[C@@]1(C)OC31` (stereo partly drawn) was tested. Which TGI did it give?
Its TGI is greater than 100 µM.

How did the TGI turn out when `O=c1[nH]nc(-c2ccccc2)c2[nH]c(-c3ccccc3)cc12` was run?
The TGI was greater than 100 µM.

With `CC1S/C(=N/c2nnc(-c3ccccc3)o2)NC1=O` (stereo not drawn) as the compound, how does the TGI read?
Its TGI is greater than 100 µM.

How did the TGI turn out when `CC1(C)CNC(=O)C2(C=NC(C)(C)CNC(=O)C3(C=N1)CCCO3)CCCO2` (stereo not drawn) was run?
Its TGI is greater than 10 µM.

How did the TGI turn out when `CC(=S)N=Cc1c(O)cc(C)oc1=O` was run?
Its TGI is greater than 100 µM.

With `COc1ccc(NC2=CC(=O)C(=O)c3ccccc32)nn1` as the compound, how does the TGI read?
The TGI was 31.2 µM.

How did the TGI turn out when `CC1(C(=O)O)CCCC1C(=O)O` (stereo not drawn) was run?
The TGI was greater than 100 µM.

For `C=c1c(OC)c(OC)c(O)c2c1=c1cc([N+](=O)[O-])cc(OC)c1=N2`, which TGI is on record?
Its TGI is greater than 100 µM.

Test system: DU-145 prostate
Assay: NCI anticancer screen, dose series, 48 h

`C=C1C(=O)O[C@@]23C1CC[C@@H](C)C2CC[C@@]1(C)OC31` (stereo partly drawn) was tested. Which TGI did it give?
The TGI was 35.5 µM.

How did the TGI turn out when `O=c1[nH]nc(-c2ccccc2)c2[nH]c(-c3ccccc3)cc12` was run?
The TGI was greater than 100 µM.

Which TGI does the source give for `CC1S/C(=N/c2nnc(-c3ccccc3)o2)NC1=O` (stereo not drawn) here?
Its TGI is greater than 100 µM.

`CC1(C)CNC(=O)C2(C=NC(C)(C)CNC(=O)C3(C=N1)CCCO3)CCCO2` (stereo not drawn) was tested. Which TGI did it give?
The TGI was greater than 10 µM.

With `CC(=S)N=Cc1c(O)cc(C)oc1=O` as the compound, how does the TGI read?
Its TGI is greater than 100 µM.

Which TGI does the source give for `COc1ccc(NC2=CC(=O)C(=O)c3ccccc32)nn1` here?
The TGI was 3.19 µM.

With `CC1(C(=O)O)CCCC1C(=O)O` (stereo not drawn) as the compound, how does the TGI read?
Its TGI is greater than 100 µM.

With `C=c1c(OC)c(OC)c(O)c2c1=c1cc([N+](=O)[O-])cc(OC)c1=N2` as the compound, how does the TGI read?
The TGI was greater than 100 µM.

Test system: MDA-MB-435
Assay: NCI anticancer screen, dose series, 48 h

Which TGI does the source give for `C=C1C(=O)O[C@@]23C1CC[C@@H](C)C2CC[C@@]1(C)OC31` (stereo partly drawn) here?
The TGI was 23 µM.

Which TGI does the source give for `O=c1[nH]nc(-c2ccccc2)c2[nH]c(-c3ccccc3)cc12` here?
The TGI was greater than 100 µM.

Which TGI does the source give for `CC1S/C(=N/c2nnc(-c3ccccc3)o2)NC1=O` (stereo not drawn) here?
Its TGI is greater than 100 µM.

How did the TGI turn out when `CC1(C)CNC(=O)C2(C=NC(C)(C)CNC(=O)C3(C=N1)CCCO3)CCCO2` (stereo not drawn) was run?
The TGI was greater than 10 µM.

For `CC(=S)N=Cc1c(O)cc(C)oc1=O`, which TGI is on record?
Its TGI is greater than 100 µM.

With `COc1ccc(NC2=CC(=O)C(=O)c3ccccc32)nn1` as the compound, how does the TGI read?
The TGI was 1.32 µM.

Which TGI does the source give for `C=c1c(OC)c(OC)c(O)c2c1=c1cc([N+](=O)[O-])cc(OC)c1=N2` here?
Its TGI is greater than 100 µM.

Test system: NCI-H226 lung
Assay: NCI anticancer screen, dose series, 48 h

`C=C1C(=O)O[C@@]23C1CC[C@@H](C)C2CC[C@@]1(C)OC31` (stereo partly drawn) was tested. Which TGI did it give?
The TGI was 47.9 µM.

`CC1S/C(=N/c2nnc(-c3ccccc3)o2)NC1=O` (stereo not drawn) was tested. Which TGI did it give?
Its TGI is greater than 100 µM.

Which TGI does the source give for `CC(=S)N=Cc1c(O)cc(C)oc1=O` here?
The TGI was greater than 100 µM.

`COc1ccc(NC2=CC(=O)C(=O)c3ccccc32)nn1` was tested. Which TGI did it give?
Its TGI is 5.5 µM.

How did the TGI turn out when `CC1(C(=O)O)CCCC1C(=O)O` (stereo not drawn) was run?
The TGI was greater than 100 µM.

`C=c1c(OC)c(OC)c(O)c2c1=c1cc([N+](=O)[O-])cc(OC)c1=N2` was tested. Which TGI did it give?
The TGI was greater than 100 µM.

Test system: KM12 colon
Assay: NCI anticancer screen, dose series, 48 h

For `C=C1C(=O)O[C@@]23C1CC[C@@H](C)C2CC[C@@]1(C)OC31` (stereo partly drawn), which TGI is on record?
The TGI was 45.7 µM.

`O=c1[nH]nc(-c2ccccc2)c2[nH]c(-c3ccccc3)cc12` was tested. Which TGI did it give?
Its TGI is greater than 100 µM.

`CC1S/C(=N/c2nnc(-c3ccccc3)o2)NC1=O` (stereo not drawn) was tested. Which TGI did it give?
The TGI was greater than 100 µM.

For `CC1(C)CNC(=O)C2(C=NC(C)(C)CNC(=O)C3(C=N1)CCCO3)CCCO2` (stereo not drawn), which TGI is on record?
Its TGI is greater than 10 µM.

With `CC(=S)N=Cc1c(O)cc(C)oc1=O` as the compound, how does the TGI read?
Its TGI is greater than 100 µM.

`COc1ccc(NC2=CC(=O)C(=O)c3ccccc32)nn1` was tested. Which TGI did it give?
Its TGI is 1.62 µM.

`CC1(C(=O)O)CCCC1C(=O)O` (stereo not drawn) was tested. Which TGI did it give?
The TGI was greater than 100 µM.

How did the TGI turn out when `C=c1c(OC)c(OC)c(O)c2c1=c1cc([N+](=O)[O-])cc(OC)c1=N2` was run?
The TGI was greater than 100 µM.
